Measured values: patent US9763443B2, “Control of bed bugs” (Ensystex Inc., priority 2011, dated 2017)

Columns and labels:
bed bugs [1] = assay: Toxicity and durability of toxicity of undiluted DMSO on filter paper in arenas (Example 1A); format: in vivo
Protocol: 0.1 milliliters of Fisher Biotech Molecular Biology Grade 99.7% DMSO (CAS#67-68-5) was applied to each of five 3.5 cm diameter disks of Fisherbrand Qualitative P8 filter paper. […] The arenas were placed in an incubator set to maintain a temperature of 22° C.
At the end of 24 hours, timed from the initial placement of the bed bugs on the filter papers, all of the arenas were removed from the incubator and opened and the bed bugs were examined. […] The bed bugs in the control jar were all still alive.
Without removing the filter paper, the dead bed bugs in the 5 arenas were removed and replaced by the same number (10) of live bed bugs in each arena. The arenas were again placed in the incubator and re-examined 24 hours later. The replacement bed bugs in the 5 arenas were also all dead.
All of the bed bugs in the control jar were all still alive at the end of the last testing interval.

bed bugs [2] = assay: Contact toxicity to bed bugs, general findings in the description; format: in vivo
bed bugs [3] = assay: Repellency to bed bugs, general finding; format: in vivo; conditions: with or without additional insecticidal active ingredient, any DMSO concentration
humans and animals = conditions: even when applied directly to a subject's skin; cited from earlier work

| Structure (SMILES) | bed bug mortality at end of 24 hours (bed bugs [1]; 0.1 mL 99.7% DMSO on 3.5 cm filter paper, 5 arenas, 10 bed bugs each, 22° C., first 24 hours) | mortality at end of each 24 hour interval, three more replications (bed bugs [1]; same filter paper, replications 3 to 5 at 24 hour intervals) | mortality of replacement bed bugs 24 hours later (bed bugs [1]; same filter paper, second 24 hour interval, 10 live bed bugs per arena) | toxicity to bed bugs upon contact (bed bugs [2]; DMSO alone, no insecticidal active ingredient or synergist) | repellency effects (bed bugs [3]) | toxicity in exposure to humans and animals (humans and animals) | toxicity-enhancing characteristics (bed bugs [2]; as penetration enhancer in insecticidal formulations) |
| --- | --- | --- | --- | --- | --- | --- | --- |
| C[S+](C)[O-] [DMSO, dimethyl sulfoxide] | All of the bed bugs in all 5 of the jars containing DMSO treated filter paper were dead | all bed bugs found to be dead | also all dead | highly toxic to bed bugs upon contact | not accompanied by any repellency effects | low toxicity |  |
| CCCCCCCCCCCCN1CCCCCC1=O [laurocapram, reference compound] |  |  |  |  |  |  | exhibits toxicity-enhancing characteristics similar to DMSO |
